Reference: patent publication US9062071B2, “Substituted piperidines as HDM2 inhibitors” (Merck Sharp & Dohme Corp, priority 2011, dated 2015)

Biological target: HDM2 protein (Homo sapiens, UniProt Q00987)
Assay: fluorescence polarization screening assay (FP IC50)
Type: binding
Conditions: class symbols
Description: The compounds were evaluated to determine activity at the HDM2 protein by known methods such as the fluorescence polarization screening assay that measures the inhibitory concentration that achieves 50% of maximal activity (FP IC50) and the dissociation constant for inhibitor binding (FP Ki). [Zhang et al., J. Analytical Biochemistry 331: 138-146 (2004)].

Sequence of HDM2 protein (Q00987 whole entry): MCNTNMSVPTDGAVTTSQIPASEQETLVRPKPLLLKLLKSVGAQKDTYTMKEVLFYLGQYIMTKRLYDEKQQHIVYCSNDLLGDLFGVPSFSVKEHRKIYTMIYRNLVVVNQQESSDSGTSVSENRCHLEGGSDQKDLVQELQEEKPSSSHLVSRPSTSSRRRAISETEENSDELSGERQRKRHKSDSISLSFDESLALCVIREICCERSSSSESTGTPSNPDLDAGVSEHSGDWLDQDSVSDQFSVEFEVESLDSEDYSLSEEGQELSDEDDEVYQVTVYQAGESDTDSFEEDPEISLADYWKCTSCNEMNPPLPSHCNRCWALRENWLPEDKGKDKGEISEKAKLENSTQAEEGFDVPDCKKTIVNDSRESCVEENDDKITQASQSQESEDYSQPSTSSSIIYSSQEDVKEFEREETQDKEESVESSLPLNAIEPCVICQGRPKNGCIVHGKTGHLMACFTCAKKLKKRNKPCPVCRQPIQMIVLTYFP

Row | Compound | IC50
1 | CCC[C@H]1N(C(=O)c2ncccc2C(F)(F)F)CCC[C@@]1(Oc1csc(C(F)(F)F)c1)C(=O)N1CCc2cc(Cl)ccc2C1CC(C(=O)O)C(C)C (stereo partly drawn) [Compound A180, 2-[(6-chloro-2-{[(2R,3S)-2-propyl-1-{[3-(trifluoromethyl)pyridin-2-yl]carbonyl}-3-{[5-(trifluoromethyl)thiophen-3-yl]oxy}piperidin-3-yl]carbonyl}-1,2,3,4-tetrahydroisoquinolin-1-yl)methyl]-3-methylbutanoic acid] | 101 to 20000 nM
2 | CCC[C@H]1N(C(=O)c2ncccc2C(F)(F)F)CCC[C@@]1(Oc1csc(C(F)(F)F)c1)C(=O)N1CCc2cc(Cl)ccc2C1COCC(=O)O (stereo partly drawn) [Compound A181, [(6-chloro-2-{[(2R,3S)-2-propyl-1-{[3-(trifluoromethyl)pyridin-2-yl]carbonyl}-3-{[5-(trifluoromethyl)thiophen-3-yl]oxy}piperidin-3-yl]carbonyl}-1,2,3,4-tetrahydroisoquinolin-1-yl)methoxy]acetic acid] | 1 to 100 nM
